Assays:
Format in all cases: toxicity, cell-based
Fibroblast = experiment: Incucyte cell viability with human fibroblast; details: 10 µM, compound concentration 10 uM
HEK-293T = experiment: Incucyte cell viability with HEK293T; details: human, 10 µM, compound concentration 10 uM
U2OS = experiment: Incucyte cell viability with U2OS; details: human, 10 µM, compound concentration 10 uM
[1] = 0 h, replicate number 1, timepoint 0 hours
[2] = 6 h, replicate number 1, timepoint 6 hours
[3] = 12 h, replicate number 1, timepoint 12 hours
[4] = 12 h, replicate number 2, timepoint 12 hours
[5] = 18 h, replicate number 1, timepoint 18 hours
[6] = 24 h, replicate number 1, timepoint 24 hours
[7] = 6 h, replicate number 2, timepoint 6 hours
[8] = 24 h, replicate number 2, timepoint 24 hours
[9] = 18 h, replicate number 2, timepoint 18 hours
[10] = 0 h, replicate number 2, timepoint 0 hours

Measured: Growth Rate
Note: filed as whole numbers so only -1 and 0 and 1 occur.

CN(C(=O)Cc1ccc(Cl)c(Cl)c1)C(CN1CCCC1)c1cccc(OCC(=O)O)c1.Cl (stereo unspecified)
1: Fibroblast; [4] | HEK-293T; [2] | HEK-293T; [3] | HEK-293T; [5] | HEK-293T; [6] | U2OS; [7] | U2OS; [4] | U2OS; [9] | U2OS; [6]
0: Fibroblast; [1] | Fibroblast; [2] | Fibroblast; [3] | Fibroblast; [5] | Fibroblast; [6] | HEK-293T; [1] | HEK-293T; [7] | HEK-293T; [4] | HEK-293T; [8] | U2OS; [1] | U2OS; [3] | U2OS; [5]

Cc1cc(NC(=O)Nc2ccc(N(C)C)cc2)c2cc(F)cc(F)c2n1
0: Fibroblast; [2] | HEK-293T; [1] | HEK-293T; [2] | HEK-293T; [3] | HEK-293T; [5] | HEK-293T; [6] | U2OS; [10] | U2OS; [2] | U2OS; [3] | U2OS; [5] | U2OS; [6]
1: Fibroblast; [1] | Fibroblast; [3] | Fibroblast; [5] | Fibroblast; [6] | U2OS; [4]

CC(=O)[C@@]1(O)CC[C@H]2[C@@H]3C[C@H](C)C4=CC(=O)CC[C@]4(C)[C@H]3CC[C@@]21C
1: Fibroblast; [1] | Fibroblast; [3] | Fibroblast; [5] | Fibroblast; [6] | HEK-293T; [1] | U2OS; [1] | U2OS; [2] | U2OS; [3] | U2OS; [5] | U2OS; [6]
0: Fibroblast; [10] | Fibroblast; [2] | HEK-293T; [10] | HEK-293T; [2] | HEK-293T; [3] | HEK-293T; [5] | HEK-293T; [6]

CN(CCOc1ccc(C[C@H](Nc2ccccc2C(=O)c2ccccc2)C(=O)O)cc1)c1ccccn1.O
1: Fibroblast; [2] | Fibroblast; [6] | HEK-293T; [1] | HEK-293T; [7] | HEK-293T; [3] | HEK-293T; [5] | HEK-293T; [6] | U2OS; [6]
0: Fibroblast; [1] | Fibroblast; [7] | Fibroblast; [4] | Fibroblast; [9] | Fibroblast; [8] | HEK-293T; [10] | HEK-293T; [2] | HEK-293T; [8] | U2OS; [1] | U2OS; [7] | U2OS; [3] | U2OS; [5] | U2OS; [8]

O=C(O)COc1cccc(CN(Cc2ccc(-n3cccn3)cc2)S(=O)(=O)c2cccnc2)c1
1: Fibroblast; [1] | Fibroblast; [3] | Fibroblast; [5] | Fibroblast; [6] | HEK-293T; [2] | HEK-293T; [3] | HEK-293T; [5] | HEK-293T; [6] | U2OS; [3] | U2OS; [5] | U2OS; [6]
0: Fibroblast; [2] | HEK-293T; [1] | U2OS; [1] | U2OS; [7] | U2OS; [4] | U2OS; [9] | U2OS; [8]

O=C(Nc1cccc2c(=O)cc(-c3nnn[nH]3)oc12)c1ccc(OCCCCc2ccccc2)cc1
0: Fibroblast; [1] | Fibroblast; [2] | Fibroblast; [3] | Fibroblast; [5] | Fibroblast; [6] | HEK-293T; [10] | HEK-293T; [2] | HEK-293T; [3] | HEK-293T; [5] | HEK-293T; [6] | U2OS; [2] | U2OS; [3] | U2OS; [5] | U2OS; [8]
1: Fibroblast; [10] | Fibroblast; [4] | Fibroblast; [9] | HEK-293T; [1] | HEK-293T; [7] | HEK-293T; [8] | U2OS; [1] | U2OS; [6]

Cc1cc(SCc2sc(-c3ccc(C(F)(F)F)c(F)c3)nc2C)ccc1OCC(=O)O
1: Fibroblast; [2] | Fibroblast; [3] | Fibroblast; [5] | Fibroblast; [6] | HEK-293T; [2] | HEK-293T; [3] | U2OS; [7] | U2OS; [3] | U2OS; [5] | U2OS; [6]
0: Fibroblast; [1] | Fibroblast; [4] | Fibroblast; [8] | HEK-293T; [1] | HEK-293T; [4] | HEK-293T; [5] | HEK-293T; [6] | U2OS; [1]

Cc1cc(C)c(N)c(C#Cc2cccc(F)c2)n1.Cl
1: HEK-293T; [1] | HEK-293T; [7] | HEK-293T; [4] | HEK-293T; [9] | HEK-293T; [8] | U2OS; [9] | U2OS; [8]
0: Fibroblast; [1] | Fibroblast; [2] | Fibroblast; [3] | Fibroblast; [5] | Fibroblast; [6] | HEK-293T; [10] | HEK-293T; [2] | HEK-293T; [3] | HEK-293T; [5] | HEK-293T; [6] | U2OS; [2] | U2OS; [3] | U2OS; [5] | U2OS; [6]

O=C(O)CC1CCC2(CC1)CCN(c1cc(OC(F)(F)F)ccc1Cl)CC2
1: Fibroblast; [2] | Fibroblast; [5] | Fibroblast; [6] | HEK-293T; [2] | HEK-293T; [4] | HEK-293T; [9] | HEK-293T; [8] | U2OS; [1] | U2OS; [7] | U2OS; [3] | U2OS; [5] | U2OS; [6]
0: Fibroblast; [1] | HEK-293T; [1] | HEK-293T; [3] | HEK-293T; [5] | HEK-293T; [6] | U2OS; [10]

COc1ccc(/C=C/CCCCOc2ccc(C(=O)c3cccc(C(=O)O)c3)cc2CCC(=O)O)cc1
0: Fibroblast; [1] | Fibroblast; [7] | Fibroblast; [3] | Fibroblast; [5] | Fibroblast; [6] | HEK-293T; [10] | HEK-293T; [8] | U2OS; [1] | U2OS; [7] | U2OS; [4] | U2OS; [9] | U2OS; [8]
1: Fibroblast; [2] | HEK-293T; [1] | HEK-293T; [2] | HEK-293T; [3] | HEK-293T; [5] | HEK-293T; [6] | U2OS; [5] | U2OS; [6]

Cc1cc(C)cc(C(=O)N(C)[C@H](Cc2ccc(-c3ccccc3)cc2)C(=O)N[C@@H](Cc2c[nH]c3ccccc23)C(=O)O)c1
0: Fibroblast; [1] | Fibroblast; [7] | HEK-293T; [10] | HEK-293T; [2] | HEK-293T; [3] | HEK-293T; [5] | HEK-293T; [6] | U2OS; [10] | U2OS; [2] | U2OS; [3] | U2OS; [5] | U2OS; [6]
1: Fibroblast; [4] | Fibroblast; [9] | Fibroblast; [8] | HEK-293T; [1] | U2OS; [4] | U2OS; [9] | U2OS; [8]

Reference: ChEMBL document CHEMBL4689842, “EUbOPEN Chemogenomics Library wave 1” (2021)
